Measured values taken from patent US20250179017A1 (GUANGDONG NEWOPP BIOPHARMACEUTICALS CO., LTD., priority 2022, published 2025).

Key:
human EP4 (EP4R) = target: T1, human EP4 (EP4R) (Homo sapiens, UniProt P35408); assay: EP4 antagonist assay (HEK-293 CNG membrane potential cAMP assay / 293T SEAP reporter assay, PGE2-stimulated); assay type: cell-based; details: EP4 antagonist activity; concentration for inhibition of signal compared to DMSO
T1 construct: Cayman Chemical (Human EP4 Reporter Assay Kit)
T1 sequence (P35408 whole entry): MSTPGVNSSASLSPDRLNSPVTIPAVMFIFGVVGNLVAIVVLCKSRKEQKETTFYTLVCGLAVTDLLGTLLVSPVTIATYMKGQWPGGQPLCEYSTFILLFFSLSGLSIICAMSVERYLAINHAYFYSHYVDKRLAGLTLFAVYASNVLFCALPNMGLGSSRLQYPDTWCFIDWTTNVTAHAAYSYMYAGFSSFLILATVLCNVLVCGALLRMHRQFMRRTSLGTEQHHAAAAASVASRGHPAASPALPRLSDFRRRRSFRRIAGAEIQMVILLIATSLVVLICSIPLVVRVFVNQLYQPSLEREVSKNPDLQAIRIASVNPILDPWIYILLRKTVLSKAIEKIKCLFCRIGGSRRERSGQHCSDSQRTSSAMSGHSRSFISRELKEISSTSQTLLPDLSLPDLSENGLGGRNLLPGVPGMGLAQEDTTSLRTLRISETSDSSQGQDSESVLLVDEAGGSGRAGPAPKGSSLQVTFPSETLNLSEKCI
Excerpt: 1. The HEK-293 CNG (Cyclic Nucleotide Gated) cell line expressing a modified CNG channel that leads to cell membrane depolarization in response to elevated intracellular cAMP levels, which can be measured using a fluorescent membrane potential dye, was engineered to express human EP2 (PTGER2) or EP4 (EP4R). The resulting cell line ACTOne™ PTGER2 or ACTOne™ EP4R as well as the fluorescent membrane potential dye were purchased from eEnzyme (Gaithersburg, MD, US) and used in this assay. Briefly, cells were plated at 1.2×10^4 cells/well in 20 μL DMEM supplemented with 2% Fetal Bovine Serum (FBS, VWR International), 1x Penicillin/Streptomycin (GenClone), 0.2 μg/mL puromycin (InvivoGen) and 50 μg/mL G418 (InvivoGen) on a 384 well plate (Greiner). The next day, cells were dye-loaded with 20 μL/well of 1x Dye-loading solution (eENZYME) following the manufacturer's instruction. After 2 hours of incubation at room temperature (RT) in the dark, a pre-read was made to obtain the background signals using CLARIOstar plate reader (BMG LABTECH, Germany) with the following filter settings: excitation=530/20 nm, emission=590/20 nm. Next, a serial dilution of compound (plus a DMSO control) were added to the plate (5 μL/well) and the reaction was incubated at RT for 15 min before adding 5 μL of PGE2 to every well for a final concentration of 5 nM. All wells were duplicated. The plate was then further incubated at RT for 30 min prior to a final read with the same machine settings. Background-subtracted signals were used to calculate IC50 values.
2. Human EP2 and EP4 Reporter Assay Kits were purchased from Cayman Chemical (Ann Arbor, MI, USA). The assay was performed following the provided User Manual. Briefly, a reverse transfection was performed by seeding 6.0×10^4 of 293T cells (ATCC) to each well of the provided Strip Plate coated with a proprietary transfection complex containing DNA constructs for expressing human EP2 or EP4 and a cAMP response element regulated secreted alkaline phosphatase (SEAP) reporter, in 200 μL DMEM supplemented with 2% FBS and incubated for 20-24 hours at 37° C. with 5% CO2. After the incubation, the culture medium was carefully removed, and the cells were replenished with 150 μL pre-warmed serum-free medium. PGE2 and test compounds were prepared together at 4x the desired final concentration, and 50 μL was added to each assigned well with the final concentration of 13 nM and 2 nM PGE2 for EP2 and EP4 assay, respectively. After 6-8 hours of incubation, 10 μL media from each well was transferred to corresponding well of a new plate, which was then sealed and incubated at 65° C. for 30 min. The plate was then cooled down to RT and 50 μL SEAP substrate was added to each well. Luminescence signal was measured using a CLARIOstar plate reader.
The IC50 value was determined as the concentration for […] inhibition of signal compared to DMSO (A: IC50≤100 nM; B: IC50 between 100 nM and 1,000 nM; C: IC50≥1,000 nM).

human EP2 (PTGER2) = target: T2, human EP2 (PTGER2) (Homo sapiens, UniProt P43116); assay: EP2 antagonist assay (HEK-293 CNG membrane potential cAMP assay / 293T SEAP reporter assay, PGE2-stimulated); assay type: cell-based; details: EP2 antagonist activity; concentration for 50% inhibition of signal compared to DMSO
T2 construct: Cayman Chemical (Human EP2 Reporter Assay Kit)
T2 sequence (P43116 whole entry): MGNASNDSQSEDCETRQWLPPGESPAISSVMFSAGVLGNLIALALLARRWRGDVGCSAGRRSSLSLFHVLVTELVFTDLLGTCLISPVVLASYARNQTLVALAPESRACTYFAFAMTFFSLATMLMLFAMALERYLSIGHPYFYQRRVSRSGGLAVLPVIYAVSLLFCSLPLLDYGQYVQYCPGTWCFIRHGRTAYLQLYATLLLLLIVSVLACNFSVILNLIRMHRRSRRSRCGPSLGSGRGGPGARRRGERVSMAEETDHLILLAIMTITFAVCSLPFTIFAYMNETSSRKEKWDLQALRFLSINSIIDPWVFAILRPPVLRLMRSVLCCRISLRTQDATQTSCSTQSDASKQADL
Outline: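 HEK-293 CNG cells expressing human EP2: compound preincubated 15 min at RT, then PGE2 at 5 nM final, 30 min; membrane-potential dye fluorescence (ex 530, em 590 nm), background-subtracted, gave IC50. Alternatively, 293T cells reverse-transfected with EP2 and CRE-SEAP, compound plus 13 nM PGE2 for 6-8 h, SEAP luminescence.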

Row | IC50 (human EP4 (EP4R)) | IC50 (human EP2 (PTGER2)) | SMILES
1 | ≤ 100 nM | < 100 nM | O=C(O)c1ccc(CNC(=O)c2ccc(Nc3ccccc3)c3ccn(Cc4ccc(-c5ccccc5)cc4)c23)cc1 [Example 154, 4-((1-([1,1′-biphenyl]-4-ylmethyl)-4-(phenylamino)-1H-indole-7-carboxamido)methyl) benzoic acid]
2 | ≤ 100 nM | < 100 nM | O=C(O)c1ccc(CNC(=O)c2ccc(Nc3ccccc3)c3ccn(Cc4ccc5ccccc5c4)c23)cc1 [Example 156, 4-((1-(naphthalen-2-ylmethyl)-4-(phenylamino)-1H-indole-7-carboxamido)methyl)benzoic acid]
3 | ≤ 100 nM | < 100 nM | O=C(O)c1ccc(CNC(=O)c2cc(-c3ccccc3)cc3cnn(Cc4ccc5ccccc5c4)c23)cc1 [Example 165, 4-((1-(naphthalen-2-ylmethyl)-5-phenyl-1H-indazole-7-carboxamido)methyl)benzoic acid]
4 | ≤ 100 nM | < 100 nM | O=C(O)c1ccc(CNC(=O)c2cc(-c3ccc(F)cc3)cc3cnn(Cc4ccc5ccccc5c4)c23)cc1 [Example 166, 4-((5-(4-fluorophenyl)-1-(naphthalen-2-ylmethyl)-1H-indazole-7-carboxamido)methyl)benzoic acid]
5 | ≤ 100 nM | < 100 nM | C[C@H](NC(=O)c1cc(-c2ccc(F)cc2)cc2cnn(Cc3ccc4ccccc4c3)c12)c1ccc(C(=O)O)cc1 [Example 168, (S)-4-(1-(5-(4-fluorophenyl)-1-(naphthalen-2-ylmethyl)-1H-indazole-7-carboxamido)ethyl)benzoic acid]
6 | ≤ 100 nM | < 100 nM | C[C@H](NC(=O)c1cc(-c2cc(F)cc(F)c2)cc2cnn(Cc3ccc4ccccc4c3)c12)c1ccc(C(=O)O)cc1 [Example 169, (S)-4-(1-(5-(3,5-difluorophenyl)-1-(naphthalen-2-ylmethyl)-1H-indazole-7-carboxamido)ethyl)benzoic acid]
7 | ≤ 100 nM | < 100 nM | O=C(O)c1ccc(CNC(=O)c2cc(-c3ccc(F)cc3)cc3nnn(Cc4ccc(C(F)(F)F)cc4)c23)cc1 [Example 175]
8 | ≤ 100 nM | < 100 nM | O=C(O)c1ccc(CNC(=O)c2cc(-c3cc(F)cc(F)c3)cc3nnn(Cc4ccc(C(F)(F)F)cc4)c23)cc1 [Example 176, ((5-(3,5-difluorophenyl)-1-(4-(trifluoromethyl)benzyl)-1H-benzo[d][1,2,3]triazole-7-carboxamido)methyl)benzoic acid]
9 | ≤ 100 nM | < 100 nM | C[C@H](NC(=O)c1cc(-c2ccc(F)cc2)cc2nnn(Cc3ccc(C(F)(F)F)cc3)c12)c1ccc(C(=O)O)cc1 [Example 180, (S)-4-(1-(5-(4-fluorophenyl)-1-(4-(trifluoromethyl)benzyl)-1H-benzo[d][1,2,3]triazole-7-carboxamido)ethyl)benzoic acid]
10 | ≤ 100 nM | < 100 nM | O=C(O)c1ccc(CNC(=O)c2cc(-c3ccccc3)cc3cnn(Cc4ccc(-c5ccc(F)cc5)cc4)c23)cc1 [Example 184, 4-((1-((4′-fluoro-[1,1′-biphenyl]-4-yl)methyl)-5-phenyl-1H-indazole-7-carboxamido)methyl)benzoic acid]
11 | ≤ 100 nM | < 100 nM | O=C(O)c1ccc(CNC(=O)c2cc(-c3ccc(F)c(F)c3)cc3ccn(Cc4ccc(-c5ccccc5)cc4)c23)cc1 [Example 188, 4-((1-([1,1′-biphenyl]-4-ylmethyl)-5-(3,4-difluorophenyl)-1H-indole-7-carboxamido)methyl)benzoic acid]
12 | ≤ 100 nM | < 100 nM | C[C@H](NC(=O)c1cc(-c2ccccc2)cc2nnn(Cc3ccc4ccccc4c3)c12)c1ccc(C(=O)O)cc1 [Example 189]
13 | ≤ 100 nM | < 100 nM | O=C(O)c1ccc(CNC(=O)c2cc(-c3ccccc3)cc3cnn(Cc4ccc(-c5ccccc5)cc4)c23)cc1 [Example 190, 4-((1-([1,1′-biphenyl]-4-ylmethyl)-5-phenyl-1H-indazole-7-carboxamido)methyl)benzoic acid]
14 | ≤ 100 nM | < 100 nM | O=C(O)c1ccc(CNC(=O)c2cc(-c3ccc(F)cc3)cc3cnn(Cc4ccc(-c5ccccc5)cc4)c23)cc1 [Example 191, 4-((1-([1,1′-biphenyl]-4-ylmethyl)-5-(4-fluorophenyl)-1H-indazole-7-carboxamido)methyl)benzoic acid]
15 | ≤ 100 nM | < 100 nM | O=C(NC[C@H]1CC[C@H](C(=O)O)CC1)c1cc(-c2ccccc2)cc2cnn(Cc3cccc(C(F)(F)F)c3)c12 [Example 221, (1r,4r)-4-((5-phenyl-1-(3-(trifluoromethyl)benzyl)-1H-indazole-7-carboxamido)methyl)cyclohexane-1-carboxylic acid]
16 | ≤ 100 nM | ≥ 1000 nM | C[C@H](NC(=O)c1cc(-c2ccccc2)cc2cnn(Cc3cccc(C(F)(F)F)c3)c12)[C@H]1CC[C@H](C(=O)O)CC1 [Example 223, (1S,4r)-4-((S)-1-(5-phenyl-1-(3-(trifluoromethyl)benzyl)-1H-indazole-7-carboxamido)ethyl)cyclohexane-1-carboxylic acid]
17 | ≤ 100 nM | < 100 nM | C[C@@H](NC(=O)c1cc(-c2ccccc2)cc2cnn(Cc3cccc(C(F)(F)F)c3)c12)[C@H]1CC[C@H](C(=O)O)CC1 [Example 224, (1R,4r)-4-((R)-1-(5-phenyl-1-(3-(trifluoromethyl)benzyl)-1H-indazole-7-carboxamido)ethyl)cyclohexane-1-carboxylic acid]
